Experimental data: article PMC6240894 (2018)

Key:
[1] = test system: 22AG (DNA, G4) AGGGTTAGGGTTAGGGTTAGGG; test: fluorescence and UV/Vis titration; details: K+ 100 mM; 10 mM Tris, pH 7.4, 25 °C; lower optical response
[2] = test system: c-myc (DNA, G4) TGAGGGTGGGTAGGGTGGGTAA; test: UV/Vis and fluorescence titration, averaged; details: K+ 100 mM; 10 mM Tris, pH 7.4, 25 °C
[3] = test system: Kras 32 (DNA, G4) AGGGCGGTGTGGGAAGAGGGAAGAGGGGGAGG; test: UV/Vis and fluorescence titration, averaged; details: K+ 100 mM; 10 mM Tris, pH 7.4, 25 °C; site 1 of 2; K12 4.1 × 10^5; 1:2 fit of lower credibility
[4] = test system: 25Ceb (DNA, G4) AGGGTGGGTGTAAGTGTGGGTGGGT; test: UV/Vis and fluorescence titration, averaged; details: K+ 100 mM; 10 mM Tris, pH 7.4, 25 °C
[5] = test system: VAV-1 (DNA, G4) GGGCAGGGAGGGAACTGGG; test: UV/Vis and fluorescence titration, averaged; details: K+ 100 mM; 10 mM Tris, pH 7.4, 25 °C
[6] = test system: Kras 22 (DNA, G4) AGGGCGGTGTGGGAATAGGGAA; test: UV/Vis and fluorescence titration, averaged; details: K+ 100 mM; 10 mM Tris, pH 7.4, 25 °C; site 1 of 2; K12 1.7 × 10^6; 1:2 fit of lower credibility
[7] = test system: sG4 (DNA, G4) GGGTGGGTAGGGTGGG; test: UV/Vis and fluorescence titration, averaged; details: K+ 100 mM; 10 mM Tris, pH 7.4, 25 °C

- binding [1]: weak
- K11 [2]: 1e+07 M⁻¹
- K11 [3]: 5.9e+06 M⁻¹
- K11 [4]: 900000 M⁻¹
- K11 [5]: 1.2e+07 M⁻¹
- K11 [6]: 1.5e+07 M⁻¹
- K11 [7]: 8.1e+06 M⁻¹
Structure (SMILES): COCCOCCOCCOc1cc(CN2C(=CC3=C([O-])C(=Cc4sc5ccccc5[n+]4Cc4cc(OCCOCCOCCOC)c(OCCOCCOCCOC)c(OCCOCCOCCOC)c4)C3=C(C#N)C#N)Sc3ccccc32)cc(OCCOCCOCCOC)c1OCCOCCOCCOC
